What was measured:
CT26 colon carcinoma = assay: Daily vs single bolus intratumoral administration in murine CT26 colon carcinoma model; assay type: in vivo, mouse; conditions: daily intratumoral 95 μg days 7-11 compared to single bolus 475 μg day 7; anti-PD1 mAb 100 μg i.p. day 4 and 9
Description: Daily intratumoral administration compared to single intratumoral bolus doses was further investigated using gemcitabine in a murine CT26 colon carcinoma model (see FIG. 7A-7B). On day 0, mice were inoculated by subcutaneous administration of CT26 cells. On day 4 and day 9, mice were administered a dose of an anti-PD1 mAb (100 μg per dose) by intraperitoneal injection. Data was pooled from two experiments, with 10 mice per group.
CT26 mice in the ‘single bolus dose’ group received a single bolus dose of gemcitabine (475 μg) (intratumoral) at day 7, and four doses of saline (intratumoral) for the next four days (FIG. 7A). CT26 mice in the ‘daily dose’ group received daily doses of gemcitabine (95 μg) (intratumoral) over days 7-11 (5 total doses) (FIG. 7B). Each daily doses was a fractional dose equivalent to approximately ⅕ of the single bolus dose.

[1] = test system: B16-F10 mouse melanoma tumor; assay: Daily vs single bolus intratumoral administration in B16-F10 mouse melanoma tumor model; assay type: in vivo; conditions: anti-PD1 mAb 100 ug i.p. Day 4 and 9
Description: Mouse melanoma cells (B16-F10) are to be injected into the flank (right side) of mice (C57Bl/6) and a tumor is to be allowed to form. The agent will be administered intratumorally or peritumorally (i.e., intradermally or subcutaneously) either as: • 1. a single bolus, • 2. a series of fractional injections where the total dose given over the time frame is equivalent to the single bolus. These injections may be given daily or every other day. • 3. a silk microneedle patch formulated with the one or more therapeutic agents.
Tumor growth will be measured two to three times weekly. Animals will be euthanized when humane endpoints have been reached. These endpoints include weight loss >15%, body condition score <1, tumor volume >1 cm^3, tumor length (defined as the longest dimension) >1.5 cm, or tumor ulceration/necrosis. These humane endpoints apply to all in vivo experiments using the melanoma model.
According to the methods outlined above, daily intratumoral administration was compared to single intratumoral bolus doses, with IL-2 or gemcitabine, using a B16-F10 mouse melanoma tumor model. For this study, two cycles of treatment were performed, including a bolus administration on Day 7 and on Day 21, and daily administration on Days 7-11 and Days 21-25. […] On Day 0, mice were inoculated by subcutaneous administration of B16-F10 cells. […]

`Nc1ccn([C@@H]2O[C@H](CO)[C@@H](O)C2(F)F)c(=O)n1` [gemcitabine] was tested, and the “overall survivability (Kaplan-Meier survival curve)” value (CT26 colon carcinoma) was “greater than the bolus dose group”, the “tumor burden (tumor volume over time)” value (CT26 colon carcinoma) was “lower tumor burden” and the “survival (Kaplan-Meier curve)” value ([1]; daily intratumoral doses (Days 7-11 and 21-25) compared to single bolus doses (Day 7 and 21)) was “greater survival”. The “tumor burden, as determined by tumor volume over time” value ([1]; daily intratumoral doses (Days 7-11 and 21-25, each 1/5 of bolus) compared to single bolus doses (Day 7 and 21)) was “lower tumor burden”.

Reference: patent publication US20220339416A1, “SILK FIBROIN-BASED MICRONEEDLES AND USES THEREOF” (VAXESS TECHNOLOGIES, INC., priority 2019, published 2022)
